Test results taken from BindingDB's records for doi:10.1016/j.bmcl.2018.02.046 (AstraZeneca, 2018).

Target: Proprotein convertase subtilisin/kexin type 9 (Homo sapiens, UniProt Q8NBP7)
Assay: Inhibition of PCSK9 binding to LDLR in human HuH7 cells after 5 hrs by On-cell Western assay

Sequence of Proprotein convertase subtilisin/kexin type 9 (Q8NBP7 31-152 limits assumed): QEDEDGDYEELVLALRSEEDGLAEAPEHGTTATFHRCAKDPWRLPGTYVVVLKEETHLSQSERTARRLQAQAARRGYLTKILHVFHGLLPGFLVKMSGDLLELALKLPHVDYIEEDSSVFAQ
Sequence of Proprotein convertase subtilisin/kexin type 9 (Q8NBP7 153-692 limits assumed): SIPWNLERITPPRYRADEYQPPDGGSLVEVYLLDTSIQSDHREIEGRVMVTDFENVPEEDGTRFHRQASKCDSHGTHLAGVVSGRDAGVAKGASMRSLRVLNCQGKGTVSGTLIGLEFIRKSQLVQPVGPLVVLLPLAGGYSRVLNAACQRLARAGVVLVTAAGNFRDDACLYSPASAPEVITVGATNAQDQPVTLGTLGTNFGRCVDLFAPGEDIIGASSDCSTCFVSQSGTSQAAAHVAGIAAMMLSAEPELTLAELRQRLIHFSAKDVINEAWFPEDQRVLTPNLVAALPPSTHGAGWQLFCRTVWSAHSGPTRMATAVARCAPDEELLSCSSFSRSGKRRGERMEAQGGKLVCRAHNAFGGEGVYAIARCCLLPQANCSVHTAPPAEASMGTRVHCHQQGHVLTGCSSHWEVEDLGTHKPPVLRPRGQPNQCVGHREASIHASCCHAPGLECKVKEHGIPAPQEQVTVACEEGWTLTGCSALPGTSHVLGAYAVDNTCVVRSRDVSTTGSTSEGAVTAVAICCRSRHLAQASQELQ

H-LILPKHSDAD-OH
IC50: 1.6 µM
